# Assay: solvent given as SMILES
# [1] = in CCCCCCCC(=O)OCC(COC(=O)CCCCCCC)OC(=O)CCCCCCC
smiles,measurement,setting,value
Cc1nc(NS(=O)(=O)c2ccc(N)cc2)oc1C,"solvation free energy, 298 K",in O,-17.7 kcal/mol
FC(F)(F)C(F)(F)Cl,"solvation free energy, 298 K",in CCCCCCCCC,-0.87 kcal/mol
same,"solvation free energy, 298 K",in CCCCCCCCO,-0.39 kcal/mol
same,"solvation free energy, 298 K",in CN1CCCC1=O,0.07 kcal/mol
same,"solvation free energy, 298 K",in CN(C)C=O,-1.54 kcal/mol
same,"solvation free energy, 298 K",in O,2.89 kcal/mol
CCCCCCO[N+](=O)[O-],"solvation free energy, 298 K",in O,-1.66 kcal/mol
FC(F)F,"solvation free energy, 298 K",[1],-0.46 kcal/mol
same,"solvation free energy, 298 K",in CCCCCCCCC,0.06 kcal/mol
same,"solvation free energy, 298 K",in CCCCCCCCO,-0.21 kcal/mol
same,"solvation free energy, 298 K",in CN1CCCC1=O,-1.35 kcal/mol
same,"solvation free energy, 298 K",in CN(C)C=O,-0.86 kcal/mol
same,"solvation free energy, 298 K",in O,0.7 kcal/mol
CCCCCNCc1ccc(C)cc1,"solvation free energy, 298 K",in O,-5.21 kcal/mol
CCCl,"solvation free energy, 298 K",in CC(=O)N(C)C,-2.93 kcal/mol
same,"solvation free energy, 298 K",in CC(C)(C)O,-2.44 kcal/mol
same,"solvation free energy, 298 K",in CC(C)CCO,-2.43 kcal/mol
same,"solvation free energy, 298 K",in CC(C)CO,-2.43 kcal/mol
same,"solvation free energy, 298 K",in CC(C)O,-2.47 kcal/mol
same,"solvation free energy, 298 K",in CCC(C)(C)O,-2.5 kcal/mol
same,"solvation free energy, 298 K",in CCC(C)CO,-2.4 kcal/mol
same,"solvation free energy, 298 K",in CCC(C)O,-2.41 kcal/mol
same,"solvation free energy, 298 K",in CCC(O)CC,-2.41 kcal/mol
same,"solvation free energy, 298 K",in CCCC(C)O,-2.36 kcal/mol
same,"solvation free energy, 298 K",[1],-2.56 kcal/mol
same,"solvation free energy, 298 K",in CCCCCCCCC,-2.34 kcal/mol
same,"solvation free energy, 298 K",in CCCCCCCCO,-2.32 kcal/mol
same,"solvation free energy, 298 K",in CCCCCO,-2.47 kcal/mol
same,"solvation free energy, 298 K",in CCCCO,-2.5 kcal/mol
same,"solvation free energy, 298 K",in CCCO,-2.54 kcal/mol
same,"solvation free energy, 298 K",in CN(C)C=O,-2.74 kcal/mol
same,"solvation free energy, 298 K",in CO,-2.63 kcal/mol
same,"solvation free energy, 298 K",in Cc1ccc(C)cc1,-2.83 kcal/mol
same,"solvation free energy, 298 K",in Cc1cccc(C)c1,-2.87 kcal/mol
same,"solvation free energy, 298 K",in Cc1ccccc1C,-2.86 kcal/mol
same,"solvation free energy, 298 K",in Clc1ccccc1,-2.96 kcal/mol
same,"solvation free energy, 298 K",in N#Cc1ccccc1,-2.88 kcal/mol
same,"solvation free energy, 298 K",in O,-0.63 kcal/mol
CCn1ccc(NS(=O)(=O)c2ccc(N)cc2)nc1=O,"solvation free energy, 298 K",in O,-20.6 kcal/mol
Oc1ccc(-c2ccccc2)cc1,"solvation free energy, 298 K",in CC(C)CC(C)(C)C,-9.58 kcal/mol
same,"solvation free energy, 298 K",in CCCCOCCCC,-12.8 kcal/mol
same,"solvation free energy, 298 K",in O,-8.89 kcal/mol
CC(=O)C1CC1,"solvation free energy, 298 K",in O,-4.61 kcal/mol
FC(F)(F)Br,"solvation free energy, 298 K",in O,1.79 kcal/mol
CNC(=O)c1ccccc1,"solvation free energy, 298 K",in CC(C)CC(C)(C)C,-7.63 kcal/mol
CCCCP(=O)(CCCC)CCCC,"solvation free energy, 298 K",in O,-11.1 kcal/mol
O=C(O)CCc1ccccc1,"solvation free energy, 298 K",in O,-9 kcal/mol
CCCCCCCOC(C)=O,"solvation free energy, 298 K",in NC=O,-4.84 kcal/mol
same,"solvation free energy, 298 K",in O,-2.07 kcal/mol
CCCCCCCCOC(=O)c1ccccc1C(=O)OCCCC,"solvation free energy, 298 K",in O,-6.83 kcal/mol
CC(Cl)CCl (stereo not drawn),"solvation free energy, 298 K",in CCCCCC,-4.17 kcal/mol
same,"solvation free energy, 298 K",in CCCCCCCCO,-4.03 kcal/mol
same,"solvation free energy, 298 K",in ClC(Cl)(Cl)Cl,-4.65 kcal/mol
Cc1ccccc1N,"solvation free energy, 298 K",in CC(C)CC(C)(C)C,-6.37 kcal/mol
same,"solvation free energy, 298 K",in CCCCCC,-6.13 kcal/mol
same,"solvation free energy, 298 K",in CCCCCCC,-6.22 kcal/mol
same,"solvation free energy, 298 K",in CCCCCCCC,-6.34 kcal/mol
same,"solvation free energy, 298 K",in CCCCCCCCCC,-6.64 kcal/mol
same,"solvation free energy, 298 K",in Cc1cccc(C)c1,-7.32 kcal/mol
same,"solvation free energy, 298 K",in Cc1ccccc1C,-7.39 kcal/mol
same,"solvation free energy, 298 K",in O,-5.55 kcal/mol
CCCCCCI,"solvation free energy, 298 K",in O,0.08 kcal/mol
COC(=O)c1ccccc1O,"solvation free energy, 298 K",in Cc1ccc(C)cc1,-7.64 kcal/mol
CC(C)CCl,"solvation free energy, 298 K",in C1CCOC1,-4.39 kcal/mol
same,"solvation free energy, 298 K",in C1CCOCC1,-4.28 kcal/mol
same,"solvation free energy, 298 K",in C=CCCCCCCCCCCCCCC,-3.51 kcal/mol
same,"solvation free energy, 298 K",in CCCCCC,-3.87 kcal/mol
same,"solvation free energy, 298 K",in COC(C)(C)C,-4.13 kcal/mol
same,"solvation free energy, 298 K",in O,0.03 kcal/mol
C=Cc1ccccc1,"solvation free energy, 298 K",in O,-1.27 kcal/mol
CCOP(=S)(OCC)Oc1nc(Cl)c(Cl)cc1Cl,"solvation free energy, 298 K",in CCCCCCCCC=CCCCCCCCC(=O)OCC(COC(=O)CCCCCCCC=CCCCCCCCC)OC(=O)CCCCCCCC=CCCCCCCCC,-14.4 kcal/mol
OCc1ccccc1,"solvation free energy, 298 K",in CCCCCCCCCCCCCCCC,-5.74 kcal/mol
same,"solvation free energy, 298 K",in N#Cc1ccccc1,-8 kcal/mol
same,"solvation free energy, 298 K",in O,-6.79 kcal/mol
CCCCCCCCCC,"solvation free energy, 298 K",in CCC(C)(C)OC,-6.77 kcal/mol
same,"solvation free energy, 298 K",in CCC(C)=O,-6.01 kcal/mol
same,"solvation free energy, 298 K",in CCCCCC,-6.85 kcal/mol
same,"solvation free energy, 298 K",in CCCCCCCCCCCCCCCC,-6.34 kcal/mol
same,"solvation free energy, 298 K",in CCO,-5.35 kcal/mol
same,"solvation free energy, 298 K",in CCOC(=O)c1ccccc1C(=O)OCC,-5.13 kcal/mol
same,"solvation free energy, 298 K",in CN1CCCC1=O,-4.92 kcal/mol
same,"solvation free energy, 298 K",in CN(C)C=O,-4.94 kcal/mol
same,"solvation free energy, 298 K",in COCCO,-4.75 kcal/mol
same,"solvation free energy, 298 K",in Cc1ccc(C)cc1,-6.68 kcal/mol
same,"solvation free energy, 298 K",in N#CCCCCC#N,-3.99 kcal/mol
same,"solvation free energy, 298 K",in O,3.18 kcal/mol
same,"solvation free energy, 298 K",in O=CN1CCOCC1,-4.15 kcal/mol
same,"solvation free energy, 298 K",in OCCO,-2.19 kcal/mol
same,"solvation free energy, 298 K",in OCCOCCO,-3.2 kcal/mol
same,"solvation free energy, 298 K",in OCCOCCOCCO,-3.33 kcal/mol
same,"solvation free energy, 298 K",in OCCOCCOCCOCCO,-3.61 kcal/mol
CCCCOCCO,"solvation free energy, 298 K",in O,-6.25 kcal/mol
FC(F)(F)C(F)(F)C(F)(F)C(F)(F)C(F)(F)C(F)(F)F,"solvation free energy, 298 K",in CCCCCC,-2.12 kcal/mol
same,"solvation free energy, 298 K",in CCCO,-0.96 kcal/mol
CC=Cc1ccc(O)c(OC)c1,"solvation free energy, 298 K",in O,-6.33 kcal/mol
CCCC(=O)c1c(C)[nH]n(-c2ccccc2)c1=O,"solvation free energy, 298 K",in O,-9.51 kcal/mol
CCCCCCCCCCCCCN,"solvation free energy, 298 K",in O,-3.2 kcal/mol
CCCCN,"solvation free energy, 298 K",in C1COCCO1,-4.48 kcal/mol
same,"solvation free energy, 298 K",in CCCCCCCC,-3.44 kcal/mol
same,"solvation free energy, 298 K",in CCCCCCCCCC,-3.4 kcal/mol
same,"solvation free energy, 298 K",in CCCCCCCCCCCCCCCC,-3.5 kcal/mol
same,"solvation free energy, 298 K",in CCCCOCCCC,-3.66 kcal/mol
same,"solvation free energy, 298 K",in O,-4.23 kcal/mol
